Results from EP1362591A1, “Use of a composition containing 5-androstene-3 beta, 17-alpha diol” (LORIA, Roger M., priority 1996, dated 1997).

Columns and labels:
ZR-75-1 cells [1] = assay: Cell proliferation assay, tritiated thymidine incorporation; assay type: cell-based, human; settings: for cell proliferation: Example 1, six day period
Protocol: The βAED, 17 beta-oestradiol and tamoxifen were obtained from Sigma Chemical Company (St. Louis, Missouri). The αAED and Flutamide were obtained from Steriloid, Inc. (Walton, New Hampshire) and Schering Corporation (Kenilworth, New Jersey), respectively. All steroids except βAED were dissolved in ethanol. βAED was dissolved in DMSO:ETHOL (1:1 v/v). Stock solutions were filtered and kept at 4°C. For testing, stock solutions were diluted in media immediately before use. The final concentration of vehicle was always ≤ 0.2% in all samples, and this concentration had no significant cytotoxic effect on the human breast cell cancer cell line designated ZR-75-1 (American Type Culture Collection) as determined by trypan blue exclusion.
The ZR-75-1 cell line (passage 89) was obtained from the American Type Culture Collection (Rockville, Maryland). The cells were cultured in RPMI-1640 medium containing 10% heat-inactivated fetal calf serum, 200 µM L-glutamine, […], 1.5 U/ml penicillin, and 1.5 µg/ml streptomycin in 5% CO2 at 37°C. The cells were passaged twice weekly.
(§1) Cells were first seeded at initial density of 1x10^5 cells per ml in quadruplicates in 24 multi-well flat bottom plates (Costar). Cells were then allowed to adhere and grow in phenol red-free […] media supplemented with 10 % heat-inactivated fetal calf serum (FCS), 200 µM L-glutamine, 10 mM HEPES, 2.5 U/ml penicillin and 2.5 µg/ml streptomycin in 5% CO2 at 37°C. After 48 hours, four wells were sacrificed and counted to determine plating efficiency. In the remaining wells, medium was removed by aspiration and cells in each well were exposed to the media containing the specified steroid. The controls containing only medium or medium with vehicle were also prepared. In all samples, medium was changed every 48 hours. At the pre-established time-point. Cells were removed by trypsinization and washed. Cell number and viability were determined by trypan blue exclusion using a hemocytometer. Parallel cultures were also run to determine cell proliferation.
(§2) For cell proliferation assays, cell suspensions were prepared by trypsinization of cells from cultures prepared in accord with methods described above. Cell viability was determined by trypan blue exclusion. The cells were then seeded in flat-bottom 96-well microtiter plates at a density of 2X10^3 cells/well and were allowed to rest for 48 hours in order to adhere. Non-adherent dead cells were removed by aspiration. Cells were then grown in media without phenol red. Some of the media contained supplements as indicated above. The active agents or vehicle control were added to the media. The cells were then grown for six days. Media was changed on the samples every 48 hours. On day 6, cells were pulsed with 1 µCi[…] for the last 6 hours of incubation before harvesting onto glass filter using a HPD cell harvester (Cambridge Technology, Watertown, Massachusetts) and counted on a KLB scintillation counter.

ZR-75-1 cells [2] = assay: Cell count and viability by trypan blue exclusion; assay type: cell-based, human
Protocol: as §1
Initial tests were carried out to determine the optimal (maximal) dose of αAED required to inhibit growth of the ZR-75-1 cells in in vitro as determined by tritiated tymidine incorporation. […] To ensure that inhibition was not due to cytotoxicity, cell count and viability were assessed by trypan blue exclusion.

P388D1 cells = assay: Growth of lymphoid neoplasm cells in the presence of RU486; assay type: cell-based; settings: Example 8; RU486 at 0.5 µM and 1.0 µM
Protocol: as §2
Effect of αAED on growth of lymphoid neoplasm (P388D1 cells obtained from the American Type Culture Collection) in the presence of RU486 at concentration of 0.5 µM and 1.0 µM was studied in accord with the methods described above.

RAW 264.7 = assay: Proliferation of murine macrophage myeloma cells; assay type: cell-based; settings: Example 9
Protocol: as §2
Effects of αAED at doses of 50 ηM and 100 ηM doses on murine macrophage myeloma cells (RAW 264.7, obtained from the American Type Culture Collection) was studied.

| SMILES | cell proliferation (ZR-75-1 cells [1]; 6.25 ηM) | cell proliferation (ZR-75-1 cells [1]; 25 ηM) | cell proliferation (ZR-75-1 cells [1]; 50 ηM) | proliferation of cells in the presence of βAED (ZR-75-1 cells [1]; Example 2, varied αAED with βAED constant at 2.5 ηM) | proliferation in the presence of estradiol (ZR-75-1 cells [1]; Example 3, higher doses of αAED with 1 ηM estradiol, 6 day period) | antiproliferative effects in the presence of Flutamide (ZR-75-1 cells [1]; Example 4, ≥6.25 ηM αAED) | synergism with RU486 (ZR-75-1 cells [1]; Example 5, RU486 1 µM) | proliferation of cells in the presence of RU486 (ZR-75-1 cells [1]; Example 5, concentrations of αAED with 0.5 µM RU486) | IC50 (ZR-75-1 cells [1]; Homo sapiens, dose and time-dependent inhibition of ZR-75-1 growth, read-out: half-maximal dose (anti-proliferative effect)) | growth of ZR-75-1 cells (ZR-75-1 cells [1]; concentration of 25 ηM or greater) | proliferation of ZR-75-1 cells (ZR-75-1 cells [1]; concentrations between 6.25 and 12.5 ηM, P<0.01 vs vehicle control) | maximal dose (anti-proliferative effect) (ZR-75-1 cells [1]; dose and time-dependent inhibition of ZR-75-1 growth) | effect on the growth of cells (ZR-75-1 cells [1]; doses ranging from 3.13 ηM to 50 ηM, compared to vehicle control after 6 days) | cytotoxicity (cell count and viability) (ZR-75-1 cells [2]) | growth of lymphoid neoplasm in combination with RU486 (P388D1 cells) | proliferation (RAW 264.7; 50 ηM) | proliferation (RAW 264.7; 100 ηM) | antiproliferative effect on the growth of ZR-75-1 cells (ZR-75-1 cells [1]; alone at 100 ηM) |
| --- | --- | --- | --- | --- | --- | --- | --- | --- | --- | --- | --- | --- | --- | --- | --- | --- | --- | --- |
| C[C@]12CC[C@H]3[C@@H](CC=C4C[C@@H](O)CC[C@@]43C)[C@@H]1CC[C@H]2O [αAED, 5-androstene 3ß,17α diol] | increasing proliferation | decreasing cell proliferation | marked decrease | decreased proliferation at all concentrations | suppressed proliferation even in the presence of estradiol | greatly enhanced | even greater | synergistic action to decrease proliferation of cells | 50 nM | significantly inhibited the growth | stimulated proliferation | 100 ηM | biphasic effect | not toxic to the cells | increased effectiveness over use of one agent | significant inhibition of proliferation | significant inhibition of proliferation |  |
| C[C@]12CC[C@H]3[C@@H](CC=C4C[C@@H](O)CC[C@@]43C)[C@@H]1CC[C@@H]2O [βAED, 5-androstene 3ß,17ß diol, reference compound] |  |  |  |  |  |  |  |  |  |  |  |  |  |  |  |  |  | did not have any antiproliferative effect |
